Laboratory results reported in paper PMC11923649, “Novel C-2 Aromatic Heterocycle-Substituted Triterpenoids Inhibit Hedgehog Signaling in GLI1 Overexpression Cancer Cells” (ACS Omega, 2025).

Legend:
MRC-5 lung fibroblasts = test: MTS cytotoxicity assay, 72 h, MRC-5 fibroblasts; assay type: cell-based, human; conditions: Homo sapiens, MRC5, 72 h, normal fibroblasts
How it was run: (§1)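 Cells were seeded and, the next day, exposed to compounds at 50–0.0975 μmol/L in 2-fold dilutions for 72 h at 37 °C, 5% CO2. MTS/phenazine methosulfate was then added for 1–4 h, absorbance was read at 490 nm, and IC50 values were derived.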

[1] = test system: Gli-mediated transcription (U-87 MG-Gli-FLuc reporter); test: U-87 MG-Gli-FLuc reporter assay; assay type: cell-based, human; conditions: 24 h, 12.5–0.78 μmol/L; compared with GANT-61 at equimolar concentration
Procedure: A possible direct inhibition of the reporter (Fluc) and luminescence itself, which could lead to false positive results, was also ruled out in a cellular as well as a noncellular model (data not shown).
Figure 1 Effect of compounds 11a, 11b, and positive control GANT-61 on Gli1 activation and cell viability measured using the U-87 MG-Gli-FLuc reporter assay. Data are expressed as percentages of control (100%) and represent the mean of three independent experiments with the standard deviation. To distinguish specific inhibition of Gli activation from a nonspecific cellular response, an MTS assay was performed simultaneously under the same conditions in 96-well transparent plates. Statistical analysis of Gli1 activity was performed using one-sample Student’s t-test (mu = 100): *, p < 0.05; **, p < 0.01. The same analysis was used to assess cytotoxicity by MTS assay: #, p < 0.05; ##, p < 0.01.
The U-87 MG-Gli-FLuc reporter cell line was developed from the human glioblastoma line U-87 MG obtained from ATCC and cultured in EMEM medium supplemented with 10% FBS, 1 mmol/L sodium pyruvate, and a 1 mmol/L nonessential amino acid mixture. […] Panels were placed on a shaker to achieve complete cell lysis, and luminescence was measured after 3 min using an EnVision plate reader.

[2] = test system: BJ human skin fibroblasts; test: MTS cytotoxicity assay, 72 h, BJ fibroblasts; assay type: cell-based; conditions: Homo sapiens, Skin fibroblast, normal fibroblasts
How it was run: as §1

[3] = MDCK-MDR1 permeability assay; assay type: in vitro ADME; conditions: dog, MDCK-MDR1; for Papp A→B: cm/s, read-out: MDCK-MDR1 Papp (×10^−6)
From the text: (§2) The Parallel Artificial Membrane Permeability Assay (PAMPA) has emerged as a primary screen for determining passive transcellular permeability. […] The Caco-2 and MDCK-MDR1 permeability assays are established models of intestinal[37] and blood-brain barriers, respectively.[38]

MDCK-MDR1 monolayer = test: MDCK-MDR1 permeability assay; assay type: in vitro ADME
From the text: as §2

MDR1 = test: MDCK-MDR1 permeability assay; assay type: in vitro ADME; conditions: dog, MDCK-MDR1; B–A / A–B
From the text: as §2

HCT 116 = test: MTS cytotoxicity assay, 72 h, HCT 116; assay type: cell-based; conditions: Homo sapiens, HCT-116, 72 h
How it was run: as §1

CCRF-CEM = test: MTS cytotoxicity assay, 72 h, CCRF-CEM; assay type: cell-based; conditions: Table 1; for IC50: Homo sapiens, CCRF-CEM, 72 h, MTS; for SI (selectivity index): IC50 of CCRF-CEM line vs average of both fibroblasts (BJ and MRC-5)
How it was run: as §1

HCT116 p53–/– = test: MTS cytotoxicity assay, 72 h, HCT116 p53–/–; assay type: cell-based; conditions: Homo sapiens, HCT-116, 72 h
How it was run: as §1

C=C(C)[C@@H]1CC[C@]2(C(=O)O)CC[C@]3(C)C(CCC4[C@@]5(C)C=C(c6ccco6)C(=O)C(C)(C)C5CC[C@]43C)C12 (stereo partly drawn) [Compound 11a, 2-(Furan-2-yl)-3-oxolupa-1,20(29)-dien-28-oic acid]
IC50 (MRC-5 lung fibroblasts; Table 1): 27 µM
IC50 (MRC-5 lung fibroblasts; full Table S1): 26.8 µM
Gli transcriptional activity [1]: inhibited Gli transcriptional activity in a dose-response manner
IC50 ([2]; Table 1): 39 µM
IC50 ([2]; full Table S1): 39.1 µM
recovery [3]: 90.4%
Papp A→B [3]: 9.15 ×10⁻⁶ cm/s
MDCK-MDR1 Active efflux (MDCK-MDR1 monolayer): No (less than or very close to the limit of active and passive efflux (≤2))
efflux ratio (MDR1): 1.53
IC50 (HCT 116; Table 1): 11 µM
IC50 (HCT 116; full Table S1): 11.4 µM
IC50 (CCRF-CEM): 8.7 µM
SI (selectivity index) (CCRF-CEM): 3.8
IC50 (HCT116 p53–/–; Table 1): 12 µM
IC50 (HCT116 p53–/–; full Table S1): 12.4 µM

C=C(C)[C@@H]1CC[C@]2(C(=O)O)CC[C@]3(C)C(CCC4[C@@]5(C)C=C(c6ccoc6)C(=O)C(C)(C)C5CC[C@]43C)C12 (stereo partly drawn) [Compound 11b, 2-(Furan-3-yl)-3-oxolupa-1,20(29)-dien-28-oic acid]
IC50 (MRC-5 lung fibroblasts; Table 1): 24 µM
IC50 (MRC-5 lung fibroblasts; full Table S1): 23.9 µM
Gli transcriptional activity [1]: inhibited Gli transcriptional activity in a dose-response manner
IC50 ([2]; Table 1): 37 µM
IC50 ([2]; full Table S1): 36.6 µM
recovery [3]: 94.7%
Papp A→B [3]: 1.85 ×10⁻⁶ cm/s
MDCK-MDR1 Active efflux (MDCK-MDR1 monolayer): Yes
efflux ratio (MDR1): 2.46
IC50 (HCT 116; Table 1): 20 µM
IC50 (HCT 116; full Table S1): 19.9 µM
IC50 (CCRF-CEM): 6 µM
SI (selectivity index) (CCRF-CEM): 5
IC50 (HCT116 p53–/–; Table 1): 14 µM
IC50 (HCT116 p53–/–; full Table S1): 13.5 µM
